In this experiment the target is human σ1 receptor (Homo sapiens (Human), UniProt Q99720). In words: Human σ1 receptor radioligand assay. Type of experiment: binding. On the procedure: Human σ1 Receptor Radioligand Assay
To investigate binding properties of test compounds to human σ1 receptor, transfected HEK-293 membranes and [^3H](+)-pentazocine (Perkin Elmer, NET-1056), as the radioligand, were used. The assay was carried out with 7 μg of membrane suspension, 5 nM of [^3H](+)-pentazocine in either absence or presence of either buffer or 10 μM Haloperidol for total and non-specific binding, respectively. Binding buffer contained Tris-HCl 50 mM at pH 8. Plates were incubated at 37° C. for 120 minutes. After the incubation period, the reaction mix was then transferred to Multiscreen HTS, FC plates (Millipore), filtered and plates were washed 3 times with ice-cold 10 mM Tris-HCL (pH7.4). Filters were dried and counted at approximately 40% efficiency in a MicroBeta scintillation counter (Perkin-Elmer) using EcoScint liquid scintillation cocktail

Like-named read-outs stand apart in the source and are kept apart here. Where only a bound is given, the exact number is not on record here.

Experimental findings from US10927128B2, “Oxadiazaspiro compounds for the treatment of drug abuse and addiction” (ESTEVE PHARMACEUTICALS, S.A., priority 2015, dated 2021) are described below.

By Ki is commonly meant a measure of affinity in units of concentration, obtained from inhibition or displacement.

Sequence of human σ1 receptor (Q99720 whole entry): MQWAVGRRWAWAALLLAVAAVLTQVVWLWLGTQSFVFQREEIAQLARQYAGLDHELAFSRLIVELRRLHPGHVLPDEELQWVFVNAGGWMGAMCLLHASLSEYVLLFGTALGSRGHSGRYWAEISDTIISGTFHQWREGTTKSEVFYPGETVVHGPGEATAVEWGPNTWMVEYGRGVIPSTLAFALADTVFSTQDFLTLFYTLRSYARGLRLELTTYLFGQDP

`CCN1CC2(CCN(CCC(C)(C)C)CC2)O[C@@H](C)C1=O` [Example 52, (S)-9-(3,3-dimethylbutyl)-4-ethyl-2-methyl-1-oxa-4,9-diazaspiro[5.5]undecan-3-one]: the inhibitory constant (Ki) was 100 to 500 nM.

In the case of `CCN1CC(C)OC2(CCN(CCc3ccccc3)CC2)C1` (centres unmarked) [Example 112, 4-Ethyl-2-methyl-9-phenethyl-1-oxa-4,9-diazaspiro[5.5]undecane], the Ki ([3H](+)-pentazocine radioligand, transfected HEK-293 membranes, read-out: Ki-σ1) was under 100 nM.
